Data from patent US20030211469A1, “Inhibiting hepatitis c virus processing and replication” (priority 2003, published 2003).
Read-outs that look alike come from different tables or passages of the source.

Experiments:
[1] = tested on: ubiquitin-ubiquitin-ubiquitin-NS2/3-β-lactamase in Jurkat cells; assay: Cell-based NS2/3 cleavage assay, Jurkat cells, β-lactamase/CCF2 readout; design: species or system Hepatitis C virus; conditions: for IC50: read-out: IC50, NS2/3 cleavage in cells, 5 hours treatment, 460 nm/530 nm ratio
Method: Inhibitor treatment was for 5 hours, followed by addition of cycloheximide to stop protein synthesis (30 minutes) and subsequent addition of the β-lactamase substrate, CCF2. After 2 hours, β-lactamase activity was quantified by fluorescence readings (460 nm/530 nm ratio). Lower 460 nm/530 nm ratios indicate inhibition of NS2/3 cleavage.
Through the use of a neomycin-selectable transfection vector, stable expression of NS2/3 in Jurkat cells was obtained. The plasmid pUbBla3X-NS2/3-3A conferring neomycin (G418) resistance, expresses a fusion of the NS2/3 protein with 3 ubiquitin domains appended to the N-terminus and β-lactamase at the C-terminus. The complete uncleaved protein has an in vivo half-life estimated to be 5-10 minutes.
The plasmid pUbBla3X NS2/3-3A was transfected into Jurlcat cells. The CMV promoter-driven ORF of the plasmid encodes a 91 kDa protein, ubiquitin-ubiquitin-ubiquitin-NS2/3-β-lactamase, with the C-termini of the 3 ubiquitin domains rendered non-cleaveable to ubiquitin-C-terminal hydrolases (ubiquitin C-terminal sequence ArgLeuArgGlyVal, SEQ. ID. NO. 2). The NS2/3 region includes HCV residues 849-1207. The β-lactamase domain is TEM-1 from E. coli. Expression of the P-lactamase moiety is readily detected with the fluorogenic, cell-penneant substrate, CCF2. (Zlokarnik, et al., (1998) Scienice 279, 84.) Transfectants were sorted by FACS using treatment with CCF2 to indicate β-lactamase expression (Zlokarnik, et al., (1998) Science 279, 84), and individual clones were grown under G418 selection. The full fusion protein expressed is highly unstable to ubiquitin-directed proteosomal degradation due to its ubiquitin N-terminal tag, while the C-terminal product of NS2/3 cleavage, NS3-β-lactamase, is stable for hours. Thus, build-up in the cells of O-lactamase activity, as indicated by CCF2 hydrolysis (high 460 nm1530 nm ratio) is indicative of successful NS2/3 cleavage, and suppression of P-lactamase activity indicates NS2/3 inhibition.
(See, Grakoui, et al., (1993) P.N.A.S. USA 90, 10583, Selby, et al., (1993) J. Gen. Virol. 74, 1103, fijikata, et al., (1993) J. Virol. 67, 4665, Santolini, et al., (1995) J. Viol. 69, 7461, D'Souza, et al., (1994) J. Gen. Virol. 75, 3469, and Pieroni, et al., (1997) J. Virol. 71, 6373.) NS2/3 self-cleavage separates the destabilizing ubiquitin degradation signal at the N-terminus from the NS3-O-lactamase C-terminal product, thus stabilizing the β-lactamase activity within the cell.

[2] = target: T1, NS2/3 fusion protein Ubi-849-1207J-BLA (UniProt P26662+P62593, S1165A); assay: Processing of NS2/3 fusion protein Ubi-849-1207J-BLA in reticulocyte lysate; format: biochemical, Hepatitis C virus (J strain)
T1 construct: NS2/3 residues 849-1207 (J strain); ubiquitin (N, cleaved yes); made in house; host or cells: in vitro translation in rabbit reticulocyte lysate from plasmid pM3A
From the text: The plasmid pM3A, derived from pCDNA (Invitrogen), encodes a fusion protein termed Ubi-849-1207J-BLA that contains ubiquitin at its N-terminus, followed by NS2/3 residues 849-1207 (J strain) linked to bacterial TEM-1 β-lactamase at the C-terminus. […] RNA synthesis for this construct is driven by the T7 promoter, and RNA was separately prepared for translation as in Example 1. Upon translation in rabbit reticulocyte lysate, the ubiquitin is immediately cleaved from the protein by cellular ubiquitin hydrolases. (Hochstrasser, (1996) Annual Review of Genetics 30, 405.)
The cleavable linkage (SEQ. ID. NO. 1) is present as ubiquitin↓ArgHisGlySerGluPhe-NS2/3. […] Translations were limited to 30 minutes for that reason. Quantification of processing at room temperature was by comparison of samples prepared immediately after addition of cycloheximide with later time samples.

HCV NS2/3 (810-1615BK) [3] = target: T2, HCV NS2/3 (810-1615BK) (Hepatitis C virus genotype 1b, UniProt P26663); format: biochemical, Hepatitis C virus (BK strain); conditions: for NS2/3 Processed (% of Control): 5 mM final concentration of nucleoside analog; for inhibition at the maximum concentration tested: 5 mM; for inhibition at the maximum concentration tested / IC50: residual ATP approximately 1 mM; for IC50: titration, read-out: IC50, inhibition of NS2/3 processing
T2 construct: HCV residues 810-1615 of the BK strain; made in house; host or cells: in vitro translation in rabbit reticulocyte lysate from plasmid pCITE 810-1615BK
Method: (§1) HCV residues 810-1615 of the BK strain, which includes all of NS2 and most of NS3 (termed 810-1615BK), was produced from the plasmid pCITE 810-1615BK (a gift from Dr. Nicola La Monica) and has been described previously by Pieroni, et al., (1997) J. Virol. 71, 6373. Following plasmid linearization with BLP1, RNA was transcribed with T7 RNA polymerase and purified. Protein translation was in rabbit reticulocyte lysate, 30° C. for 40 minutes using [^35S]-methionine as a label. Translation was then blocked by the addition of cycloheximide (250 μM final) and the samples were immediately frozen on dry ice.
(§2) Prior to processing experiments, an aliquot of translated NS2/3 was thawed on ice. Processing of 810-1615BK was initiated by addition to room temperature solutions containing Triton X-100 at 1%, as described by Pieroni, et al., (1997) J. Virol. 71, 6373. The distribution of [^35S]-labeled proteins on dried gels was determined with a Phosphorimager (Molecular Dynamics). Product bands were quantified and expressed as a proportion of total signal in the gel lane so that variations in gel lane loading were normalized.

HCV NS2/3 (810-1615BK) [4] = format: biochemical, Hepatitis C virus (BK strain); conditions: for NS2/3 Processed (% of Control): present during synthesis and processing, 30 minutes
Method: as §1, §2
NS2/3 processing reactions were performed with 810-1615BK. […] (Darke, et al., (1999) J. Biol. Chem. 274, 34511.) Inhibitors were dissolved in DMSO and protected from light. Dilutions were in DMSO, such that the final concentration of DMSO was 2% for in vitro experiments and 1% for cell-based assays. […] (Hu, et al., (1996) P.N.A.S. USA 93, 1060; Thulasiraman, et al., (1996) Biochemistry 35, 13443 (1996), Schneider, et al., (1996) P.N.A.S. USA 93, 14536.)
to the data, where a is the minimal level of fractional activity (tending to 0), a+b is the maximal level (tending to 1), x is the concentration of inhibitor, c is the IC50 and d is a slope coefficient. […] Values given are the average of two determinations.

[5] = titration, 810-1615BK, average of two determinations

SMILES: COC1=C2C[C@@H](C)C[C@H](OC)[C@H](O)[C@@H](C)/C=C(\C)[C@H](OC(N)=O)[C@@H](OC)/C=C\C=C(/C)C(=O)NC(=CC1=O)C2=O [Geldanamycin]
- inhibition at the highest concentrations tested [1]: nearly complete
- IC50 [1]: 0.04 µM

SMILES: Nc1ncnc2c1ncn2[C@@H]1O[C@H](COP(=O)(O)OP(=O)(O)OP(O)(O)=S)[C@@H](O)[C@H]1O [ATPγS]
- Inhibition of NS2/3 processing, J-strain fusion protein [2]: Inhibition by ATPγS was also observed
- NS2/3 Processed (% of Control) (HCV NS2/3 (810-1615BK) [3]): 24 % of Control
- inhibition at the maximum concentration tested (HCV NS2/3 (810-1615BK) [3]): 77%
- IC50 (HCV NS2/3 (810-1615BK) [3]): 2000 µM

SMILES: C[C@@H]1C[C@H]2O[C@@H]2/C=C\C=C\C(=O)Cc2c(Cl)c(O)cc(O)c2C(=O)O1 [Radicicol]
- inhibition at the highest concentrations tested [1]: nearly complete
- IC50 [1]: 0.013 µM
- EC50 (HCV NS2/3 (810-1615BK) [4]; [5]): 0.22 ± 0.12 µM
- Maximum Inhibition (%) (HCV NS2/3 (810-1615BK) [4]; [5]): 51%

SMILES: Nc1ncnc2c1ncn2[C@@H]1O[C@H](COP(=O)(O)OP(=O)(O)NP(=O)(O)O)[C@@H](O)[C@H]1O [AMP-PNP]
- NS2/3 Processed (% of Control) (HCV NS2/3 (810-1615BK) [3]): 40 % of Control
- inhibition at the maximum concentration tested (HCV NS2/3 (810-1615BK) [3]): 60%
- IC50 (HCV NS2/3 (810-1615BK) [3]): 4000 µM

SMILES: CO[C@H]1[C@@H](OC)C[C@H](C)[C@@H](OC)C2=CC(=O)C=C(NC(=O)/C(C)=C/C=C\[C@H](OC)[C@@H](OC(N)=O)/C(C)=C/[C@@H]1C)C2=O [Herbimycin A, herbimycin A]
- NS2/3 Processed (% of Control) (HCV NS2/3 (810-1615BK) [4]; 1 μM): 38 % of Control
- NS2/3 Processed (% of Control) (HCV NS2/3 (810-1615BK) [4]; 10 μM): 22 % of Control
